Laboratory results taken from US20050256103A1, “Indole derivative having piperidine ring” (Eisai Co., Ltd., priority 2004, published 2005).
pIC50: −log10 of the molar value. Read-outs that look alike come from different tables or passages of the source.

Assays:
[1] = molecular target: T1, serotonin 1A receptor (Mus musculus, UniProt Q64264); test: Antagonistic effect on serotonin 1A receptor agonist (8-OH-DPAT)-induced hypothermia in mouse; assay type: in vivo; settings: CD-1 (ICR) male mice; inhibition of hypothermia by 8-OH-DPAT 0.5 mg/kg sc; test substance 15 minutes before agonist
T1 construct: into the rectum of CD-1 (ICR) male mice (25-45 g); from tissue; host or cells: living CD-1 (ICR) male mice (in vivo)
T1 sequence (Q64264 1-421): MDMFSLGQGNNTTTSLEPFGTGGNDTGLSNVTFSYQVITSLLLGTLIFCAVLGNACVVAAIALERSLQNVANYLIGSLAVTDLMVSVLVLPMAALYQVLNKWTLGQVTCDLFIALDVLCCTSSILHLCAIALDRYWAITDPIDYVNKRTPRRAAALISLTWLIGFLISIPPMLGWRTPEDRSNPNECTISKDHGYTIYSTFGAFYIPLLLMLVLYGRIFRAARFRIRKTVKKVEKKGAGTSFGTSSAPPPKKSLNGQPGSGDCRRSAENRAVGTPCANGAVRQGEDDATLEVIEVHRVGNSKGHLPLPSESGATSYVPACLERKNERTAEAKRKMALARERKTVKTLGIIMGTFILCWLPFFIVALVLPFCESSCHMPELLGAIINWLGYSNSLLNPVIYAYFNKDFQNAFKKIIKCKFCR
Procedure: (1) A thermistor probe was inserted at a depth of approximately 2 cm into the rectum of CD-1 (ICR) male mice (25-45 g), so as to measure the body temperature thereof. Body temperature is decreased by subcutaneous administration of serotonin 1A receptor agonist (8-hydroxy-dipropylaminotetralin (8-OH-DPAT) 0;5 mg/kg. Since a serotonin 1A antagonist inhibits such action, the antagonistic effect of a test substance to a serotonin 1A receptor was evaluated using the inhibitory effect of the hypothermia as an index. The test results are shown in Table 2 indicated below. A test substance was administered 15 minutes before the administration of the serotonin 1A agonist. A serotonin 1A partial agonist alone decreases the body temperature, depending on the degree of the agonistic action thereof. In addition, it has a weak antagonistic effect on 8-OH-DPAT-induced hypothermia.

[2] = molecular target: T2, 5-HT1A receptor (Sus scrofa, UniProt A0A4X1UTF5); test: Affinity for serotonin 1A receptor: inhibition of [3H]MPPF binding in swine hippocampal membrane fraction; settings: for pIC50: [3H]MPPF 0.5 nM, swine hippocampal membrane, 37°C 30 min; for L/H ratio: low affinity IC50 divided by high affinity IC50, 1 or smaller = no intrinsic activity, 2 or greater = intrinsic activity
T2 construct: Swine hippocampus was homogenized in a 50 mM Tris-Hcl buffer; from tissue; host or cells: swine hippocampus, membrane fraction
T2 sequence (A0A4X1UTF5 1-422): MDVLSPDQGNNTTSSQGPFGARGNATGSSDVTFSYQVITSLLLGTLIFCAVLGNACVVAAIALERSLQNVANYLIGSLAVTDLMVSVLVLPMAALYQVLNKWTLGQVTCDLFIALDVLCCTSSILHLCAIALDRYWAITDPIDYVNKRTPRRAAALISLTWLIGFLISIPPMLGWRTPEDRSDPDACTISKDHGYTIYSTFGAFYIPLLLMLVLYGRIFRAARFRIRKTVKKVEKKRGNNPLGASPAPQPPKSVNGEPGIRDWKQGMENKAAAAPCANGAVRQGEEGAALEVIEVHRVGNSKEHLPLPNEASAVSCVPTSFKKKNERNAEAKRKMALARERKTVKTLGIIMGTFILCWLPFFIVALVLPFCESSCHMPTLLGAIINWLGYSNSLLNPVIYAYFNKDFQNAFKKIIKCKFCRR
Text: (1) The affinity of a test substance for a 5-HT1A receptor was examined by an inhibition experiment, in which the inhibitory effect of the test substance against the binding of [^3H]-4-(2′-methoxy)phenyl-1-(2′-(N-2″-pyridinyl)-p-fluorobenzamido)ethyl-piperazine (MPPF) that selectively binds to the 5-HT1A receptor in a swine hippocampal membrane fraction was examined. The 5-HT1A receptor that is a G-protein binding receptor becomes a G-protein binding state with addition of MgCl2. In contrast, it becomes a G-protein non-binding state with addition of guanylylimido diphosphate (Gpp(NH)p). […] Thus, both the affinity of a test substance to the receptor that was in a state of not binding to the G-protein and the affinity of the test substance to the receptor that was in a state of binding to the G-protein were obtained. Then, the obtained values were compared to each other, so as to estimate the level of the intrinsic activity of the test substance. Theoretically, when the value (L/H) obtained by dividing the affinity of a test substance to the receptor that is in a low affinity state (IC50 value) by the affinity of a test substance to the receptor that is in a high affinity state (IC50 value) is 1 or less, the intrinsic activity thereof is zero. The greater this value, the higher the intrinsic activity that can be obtained.
Swine hippocampus was homogenized in a 50 mM Tris-Hcl buffer (pH 7.4; hereinafter referred to as buffer A) that had been cooled on ice. The suspension was centrifuged at 40,000×g for 15 minutes. The obtained pellet was suspended in buffer solution A, and the thus obtained solution was then centrifuged at 40,000×g for 15 minutes. The same operation was repeated 2 or 3 times. The finally obtained pellet was suspended in a buffer solution A in an amount 10 times the wet weight of the swine hippocampus, so as to obtain a membrane fraction. The obtained membrane fraction was stored at −80° C. until use.
A mixture (0.5 ml) used for incubation comprised an appropriate amount of the membrane fraction, a test substance with a desired concentration, MgCl2 (final concentration: 10 mM) or Gpp(NH)p (final concentration: 1 mM), [^3H]MPPF (final concentration: 0.5 nM), dimethyl sulfoxide (final concentration: 1% (v/v)), and a 50 mM Tris-Hcl buffer (pH 7.4). The reaction was initiated with addition of the membrane fraction, and the mixture was incubated at 37° C. for 30 minutes. After completion of the incubation, the mixture was subjected to vacuum filtration with a glass filter, using Cell Harvester. The filter was washed with buffer solution A that had been cooled on ice. Thereafter, radioactivity binding to the receptor was measured with a liquid scintillation counter. Non-specific binding was defined as binding detected in the presence of 10 μM WAY-100,635.

[3] = receptor in high affinity (G-protein binding, MgCl2 10 mM) state, read-out: High affinity IC50
[4] = receptor in low affinity (G-protein non-binding, Gpp(NH)p 1 mM) state, read-out: Low affinity IC50

Structure (SMILES) | ED50 [1] | pIC50 [2, 3] | pIC50 [2, 4] | L/H ratio [2]
CCc1nc2cc(CCN3CCC(n4ccc5ccc(C(N)=O)cc54)CC3)c(OC)cc2o1 [Compound 6, 1-{1-[2-(2-ethyl-6-methoxybenzoxazol-5-yl)ethyl]piperidin-4-yl}-1H-indole-6-carboxamide] | 0.35 mg/kg, sc | 9.70 | 9.70 | 1
COc1cc2c(cc1CCN1CCC(n3ccc4ccc(C(N)=O)cc43)CC1)NC(=O)CC2 [Compound 56, 1-{1-[2-(6-methoxy-2-oxo-1,2,3,4-tetrahydroquinolin-7-yl)ethyl]piperidin-4-yl}-1H-indole-6-carboxamide] |  | 10.15 | 10.40 | 0.5
COCC1(C)CC(=O)c2ccc(OC)c(CCN3CCC(n4ccc5ccc(C(N)=O)cc54)CC3)c2O1 (centres unmarked) [Compound 40, 1-{1-[2-(7-methoxy-2-methoxymethyl-2-methyl-4-oxochroman-8-yl)ethyl]piperidin-4-yl}-1-H-indole-6-carboxamide] |  | 9.74 | 9.77 | 0.9
COc1ccc2c(c1CCN1CCC(n3ccc4ccc(C(N)=O)cc43)CC1)OC1(CCCC1)CC2=O [Compound 41, 1-{1-[2-(7-methoxy-4-oxo-spiro(chroman-2,1′-cyclopentan)-8-yl)ethyl]piperidin-4-yl}-1H-indole-6-carboxamide] |  | 9.70 | 9.85 | 0.7
COc1cc2c(cc1CCN1CCC(n3ccc4ccc(C(N)=O)cc43)CC1)N(C)C(=O)OC2 [Compound 39, 1-{1-[2-(6-methoxy-methyl-oxo-1,4-dihydro-2H-benz[d][1,3]oxazin-7-yl)ethyl]piperidin-4-yl}-1H-indole-6-carboxamide] |  | 9.89 | 10.05 | 
COc1ccc2cccnc2c1CCN1CCC(n2ccc3ccc(C(N)=O)cc32)CC1 [Compound 29, 1-{1-[2-(7-methoxyquinolin-8-yl)ethyl]piperidin-4-yl}-1H-indole-6-carboxamide] |  | 9.47 | 9.52 | 0.9
COc1cc2c(cc1CCN1CCC(n3ccc4ccc(C(N)=O)cc43)CC1)C(=O)CCCO2 [Compound 12, 1-{1-[2-(8-methoxy-5-oxo-2,3,4,5-tetrahydrobenzo[b]oxepin-7-yl)ethyl]piperidin-4-yl}-1H-indole-6-carboxamide] |  | 9.77 | 9.80 | 0.9
CNC(=O)c1ccc2ccn(C3CCN(CCc4cc5nc(C)oc5cc4OC)CC3)c2c1 [Compound 16, 1-{1-[2-(6-methoxy-2-methylbenzoxazol-5-yl)ethyl]piperidin-4-yl}-N-methyl-1H-indole-6-carboxamide] |  | 9.74 | 9.77 | 0.9
CON=C1CCCOc2cc(OC)c(CCN3CCC(n4ccc5ccc(C(N)=O)cc54)CC3)cc21 [Compound 13, 1-{1-[2-(8-methoxy-5-methoxyimino-2,3,4,5-tetrahydrobenzo[b]oxepin-7-yl)ethyl]piperidin-4-yl}-1H-indole-6-carboxamide] |  | 9.49 | 9.66 | 0.7
COc1cc2c(cc1CCN1CCC(n3ccc4ccc(C(N)=O)cc43)CC1)C(O)CC2 (stereo not drawn) [Compound 50, 1-{l-[2-(3-hydroxy-6-methoxyindan-5-yl)ethyl]piperidin-4-yl}-1H-indole-6-carboxamide] |  | 9.68 | 9.68 | 1
CNC(=O)c1ccc2ccn(C3CCN(CCc4c(OC)ccc5nc(C)oc45)CC3)c2c1 [Compound 15] |  | 9.14 | 9.21 | 0.8
CON=C1CCc2c(CCN3CCC(n4ccc5ccc(C(N)=O)cc54)CC3)c(OC)cc(OC)c21 [Compound 11, 1-{1-[2-(5,7-dimethoxy-1-methoxyiminoindan-4-yl)ethyl]piperidin-4-yl}-1H-indole-6-carboxamide] |  | 9.66 | 10.00 | 0.4

Results, then the compound that gave them:

ED50 [1] | pIC50 [2, 3] | pIC50 [2, 4] | L/H ratio [2] | Structure (SMILES)
0.3 mg/kg, sc | 9.66 | 9.77 | 0.8 | COc1cc2c(cc1CCN1CCC(n3ccc4ccc(C(N)=O)cc43)CC1)C(=O)CC(C)(C)O2 [Compound 24, 1-{1-[2-(7-methoxy-2,2-dimethyl-4-oxochroman-6-yl)ethyl]piperidin-4-yl}-1H-indole-6-carboxamide]
0.1 mg/kg, sc | 9.89 | 10.00 | 0.8 | COc1ccc2c(c1CCN1CCC(n3ccc4ccc(C(N)=O)cc43)CC1)OC(C)(C)CC2=O [Compound 22, 1-{1-[2-(7-methoxy-2,2-dimethyl-4-oxochroman-8-yl)ethyl]piperidin-4-yl}-1H-indole-6-carboxamide]
 | 8.96 | 9.16 | 0.6 | CON=C1CCCc2c1ccc(OC)c2CCN1CCC(n2ccc3ccc(C(N)=O)cc32)CC1 [Compound 19, 1-{1-[2-(2-methoxy-5-methoxyimino-5,6,7,8-tetrahydronaphthalen-1-yl)ethyl]piperidin-4-yl}-1H-indole-6-carboxamide]
 | 9.66 | 9.82 | 0.7 | COc1ccc2c(c1CCN1CCC(n3ccc4ccc(C(N)=O)cc43)CC1)OC1(CCOCC1)CC2=O [Compound 43, 1-{1-[2-(7-methoxy-4-oxo-spiro(chroman-2,4′-oxan)-8-yl)ethyl]piperidin-4-yl}-1H-indole-6-carboxamide]
 | 9.34 | 9.47 | 0.7 | COc1ccc2c(c1CCN1CCC(n3ccc4ccc(C(N)=O)cc43)CC1)CC(C)(C)C2=O [Compound 14, 1-{1-[2-(5-methoxy-2,2-dimethyl-1-oxoindan-4-yl)ethyl]piperidin-4-yl}-1H-indole-6-carboxamide]
 | 9.26 | 9.41 | 0.7 | COc1ccc2c(c1CCN1CCC(n3ccc4ccc(C(N)=O)cc43)CC1)OCC(C)(C)C2=O [Compound 37, 1-{1-[2-(7-methoxy-3,3-dimethyl-4-oxochroman-8-yl)ethyl]piperidin-4-yl}-1H-indole-6-carboxamide]
